Consider 41 molecules from patent publication US20250388592A1 (REMYND N.V., priority 2022, published 2025).

In this experiment the test system is M17_3TAU(P301L) cells. In words: TAU-induced cytotoxicity (LDH) in the neuroblastoma tauopathy model. It is filed as cell-based. The note with it: Homo sapiens, 168 h, inhibition of TAU-induced toxicity, 7 days retinoic acid differentiation, LDH readout. Put shortly: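 Stably transfected BE-M17 cells expressing human TAU-P301L, seeded in serum-free detection medium, then differentiated with 2.5 μM RA (added in equal volume) for 7 days at 37° C/5% CO2 to induce TAU aggregation. Cytotoxicity = supernatant LDH increase over total LDH; EC50 from dose-dependent inhibition curves.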
In turn, `O=C(Cc1ccc(OC(F)(F)F)cc1)N1CC2(CN(Cc3ccc(F)cc3)C2)C1` [Cpd B090] registered a 50% effective concentration (EC50) of 0.00915 µM.
In the case of `Cc1cccc(CN2CC3(C2)CN(C(=O)Cc2ccc(Cl)cc2)C3)n1` [Cpd B038, 2-(4-chlorophenyl)-1-(6-((6-methylpyridin-2-yl)methyl)-2,6-diazaspiro[3.3]heptan-2-yl)ethanone] it was 0.0139 µM.
`Cc1nc(CN2CC3(C2)CN(S(=O)(=O)Cc2cccc(C(F)(F)F)c2)C3)cs1` [Cpd B215] gave an EC50 of 0.00373 µM.
The molecule `Cc1cccnc1CN1CC2(C1)CN(S(=O)(=O)CCc1ccccc1)C2` [Cpd B211, 2-((3-methylpyridin-2-yl)methyl)-6-((phenethyl)sulfonyl)-2,6-diazaspiro[3.3]heptane] yielded an EC50 of 0.0948 µM.
In turn, `O=C(Cc1ccc(Cl)cc1)N1CC2(CN(CCC3CCCCC3)C2)C1` [Cpd B057, 2-(4-chlorophenyl)-1-(6-(2-cyclohexylethyl)-2,6-diazaspiro[3.3]heptan-2-yl)ethanone] returned a concentration for a half-maximal effect (EC50) of 0.00158 µM.
In the case of `O=C(Nc1ccc(Cl)cc1)N1CC2(CN(Cc3ccc(F)cc3)C2)C1` [Cpd B187] it was 0.00915 µM; in that of `O=C(NC12CC(F)(C1)C2)N1CC2(CN(Cc3ccc(F)cc3)C2)C1` [Cpd B190, 6-(4-fluorobenzyl)-N-(3-fluorobicyclo[1.1.1]pentan-1-yl)-2,6-diazaspiro[3.3]heptane-2-carboxamide], 0.491 µM; in that of `Cc1cccnc1CN1CC2(C1)CN(C(=O)OCc1ccc(Cl)cc1)C2` [Cpd B137], 0.0493 µM.
The molecule `Cc1cccnc1CN1CC2(C1)CN(C(=O)OC1CCCC1)C2` [Cpd B138] came in with an EC50 of 0.888 µM.
In the case of `Cc1cccc(CCN2CC3(C2)CN(C(=O)Cc2ccc(F)cc2)C3)c1` [Cpd B028, 2-(4-Fluoro-phenyl)-1-[6-(2-m-tolyl-ethyl)-2,6-diaza-spiro[3.3]hept-2-yl]-ethanone] it was 0.0129 µM.
In the case of `O=C(NCC1CCOCC1)N1CC2(CN(Cc3ccc(F)cc3)C2)C1` [Cpd B169] it was 0.881 µM; in that of `COc1ccc(CNC2CC3(C2)CC(Nc2nc(Cc4ccc(Cl)cc4)ns2)C3)cc1F` (centres unmarked) [Cpd B313, N-(3-(4-chlorobenzyl)-1,2,4-thiadiazol-5-yl)-N′-(3-fluoro-4-methoxybenzyl) spiro[3.3]heptane-2,6-diamine], 0.0029 µM.
Molecule `O=C(Cc1cccc(Cl)c1)N1CC2(CN(Cc3ccc(F)cc3)C2)C1` [Cpd B433] gave an EC50 of 0.469 µM.
With `Cc1cccnc1CN1CC2(C1)CN(S(=O)(=O)Cc1cccc(C(F)(F)F)c1)C2` [Cpd B212], the EC50 amounted to 0.00494 µM.
For the molecule `O=C(OC1CCC(F)(F)CC1)N1CC2(CN(Cc3ncccc3Cl)C2)C1` [Cpd B154], the EC50 worked out at 0.00781 µM.
In the case of `COc1cccc(CN2CC3(C2)CN(S(=O)(=O)Cc2ccc(F)cc2)C3)c1` [Cpd B221] it was 0.0186 µM; in that of `Cc1c(Cl)c(CN2CC3(C2)CN(C(=O)CC2CCC(F)(F)CC2)C3)nn1C` [Cpd B121], 0.0125 µM.
In the case of `O=C(Cc1ccc(F)cc1)N1CC2(CN(Cc3ccccc3OC(F)(F)F)C2)C1` [Cpd B013, 2-(4-Fluoro-phenyl)-1-[6-(2-trifluoromethoxy-benzyl)-2,6-diaza-spiro[3.3]hept-2-yl]-ethanone] it was 0.00627 µM; in that of `COc1cccc(CN2CC3(C2)CN(C(=O)NC2CC(F)(F)C2)C3)c1` [Cpd B422], 0.978 µM.
In the case of `Cc1ccccc1CC(=O)N1CC2(CN(Cc3ccc(F)cc3)C2)C1` [Cpd B439] it was 0.295 µM.
Molecule `O=C(CCC1CCCCC1)N1CC2(CN(Cc3ccc(F)cc3)C2)C1` [Cpd B089] registered an EC50 of 0.00293 µM.
In the case of `O=C(OCC1CCC(F)(F)CC1)N1CC2(CN(Cc3c(F)cccc3C(F)(F)F)C2)C1` [Cpd B448] it was 0.12 µM; in that of `Cc1cc(CN2CC3(C2)CN(C(=O)Cc2ccc(Cl)cc2)C3)no1` [Cpd B041, 2-(4-chlorophenyl)-1-(6-((5-methylisoxazol-3-yl)methyl)-2,6-diazaspiro[3.3]heptan-2-yl)ethanone], 0.141 µM; in that of `Cn1ccc(CN2CC3(C2)CN(C(=O)NCc2ccc(F)cc2)C3)n1` [Cpd B406], 4.62 µM.
Molecule `Cc1ccccc1CN1CC2(C1)CN(C(=O)Cc1ccc(Cl)cc1)C2` [Cpd B006, 2-(4-chlorophenyl)-1-(6-(2-methylbenzyl)-2,6-diazaspiro[3.3]heptan-2-yl)ethanone] showed an EC50 of 0.00291 µM.
On to `O=C(OC1CCC(F)(F)CC1)N1CC2(CN(Cc3ccccc3OC(F)F)C2)C1` [Cpd B149], for which the midpoint of the response, the EC50, lay at 0.00758 µM.
In the case of `COc1cccc(CN2CC3(C2)CN(C(=O)Oc2ccc(F)cc2)C3)c1` [Cpd B140, 4-fluorophenyl 6-(3-methoxybenzyl)-2,6-diazaspiro[3.3]heptane-2-carboxylate] it was 0.0015 µM.
For `O=C(NC1CCC(F)(F)CC1)N1CC2(CN(Cc3c(F)cccc3C(F)(F)F)C2)C1` [Cpd B208], the EC50 is 0.252 µM.
In the case of `O=C(Cc1ccccn1)N1CC2(CN(Cc3ccc(F)cc3)C2)C1` [Cpd B414] it was 2.71 µM; in that of `COc1ccc(CCNC2CC3(C2)CC(Nc2nc(Cc4ccc(Cl)cc4)ns2)C3)cc1` (centres unmarked) [Cpd B333, N-(3-(4-chlorobenzyl)-1,2,4-thiadiazol-5-yl)-N′-(4-methoxyphenethyl) spiro[3.3]heptane-2,6-diamine], 0.002 µM; in that of `O=C(Cc1cccnc1)N1CC2(CN(Cc3ccc(F)cc3)C2)C1` [Cpd B409], 3.73 µM.
In the case of `O=C(NC1CCC(F)(F)CC1)N1CC2(CN(Cc3ccccc3C(F)(F)F)C2)C1` [Cpd B207] it was 0.0178 µM.
Molecule `O=C(Cc1ccc(Cl)cc1)N1CC2(CN(Cc3cccc(Cl)c3)C2)C1` [Cpd B033, 1-(6-(3-chlorobenzyl)-2,6-diazaspiro[3.3]heptan-2-yl)-2-(4-chlorophenyl)ethanone] came in with an EC50 of 0.00246 µM.
`COc1cccc(CN2CC3(C2)CN(S(=O)(=O)Cc2ccc(C(F)(F)F)cc2)C3)c1` [Cpd B224] had an EC50 of 0.0122 µM.
In the case of `Cc1cccnc1CN1CC2(C1)CN(C(=O)Cc1ccccc1F)C2` [Cpd B436] it was 0.389 µM; in that of `Cc1nc(CN2CC3(C2)CN(C(=O)Nc2ccc(Cl)cc2)C3)cs1` [Cpd B452], 0.0945 µM; in that of `O=C(CC1CCC(F)(F)CC1)N1CC2(CN(Cc3ncccc3Cl)C2)C1` [Cpd B114], 0.0136 µM.
In turn, `COc1cccc(CN2CC3(C2)CN(C(=O)NC2CCCC2)C3)c1` [Cpd B183] registered an EC50 of less than 0.00019 µM.
In the case of `O=C(Cc1ccc(Cl)cc1)N1CC2(CN(CCc3cccc(C(F)(F)F)c3)C2)C1` [Cpd B044, 2-(4-chlorophenyl)-1-(6-(3-(trifluoromethyl)phenethyl)-2,6-diazaspiro[3.3]heptan-2-yl)ethanone] it was 0.0161 µM.
`FC(F)(F)c1cccc(CCNC2CC3(C2)CC(Nc2nc(Cc4ccc(Cl)cc4)ns2)C3)c1` (centres unmarked) [Cpd B336, N-(3-(4-chlorobenzyl)-1,2,4-thiadiazol-5-yl)-N′-(3-(trifluoromethyl)phenethyl) spiro[3.3]heptane-2,6-diamine] returned an EC50 of 0.007 µM.
In the case of `FC(F)(F)c1ccccc1CNC1CC2(C1)CC(Nc1nc(Cc3ccc(Cl)cc3)ns1)C2` (centres unmarked) [Cpd B322, N-(3-(4-chlorobenzyl)-1,2,4-thiadiazol-5-yl)-N′-(2-(trifluoromethyl)benzyl) spiro[3.3]heptane-2,6-diamine] it was 0.0028 µM.

Usually EC50 stands for the midpoint of the concentration-response curve. Read a low EC50 as higher potency in that assay.
